# Measured values taken from US20090264426A1, “Bicyclic aromatic substituted pyridone derivative” (priority 2005, published 2009).
# Target: T1, human MCH-1R (Homo sapiens, UniProt Q99705)
# T1 construct: expressed in transfected cells; host or cells: CHO-K1
# Assay: MCH binding inhibition test
# Details: 50% inhibition of specific [125I]MCH (50 pM) binding; membranes of MCH-1R expressing CHO-K1 cells; 25° C., 1 hour, pH 7.4
# Experimental: A human MCH-1R encoding cDNA sequence [FEBS Letters, Vol. 398, 253 (1996); Biochimica et Biophisica Acta, Vol. 1401, 216 (1998)] was cloned to a plasmid vector pEF/myc/cyto (Invitrogen Corporation). The obtained expression vector was transfected to host cells CHO-K1 (American Type Culture Collection) using Lipofectamine Plus Reagent (Life Technology Inc.) to provide MCH-1R expression cells.
# Membrane samples prepared from the MCH-1R expression cells were incubated with each test compound and 50 pM of [^125I]MCH (NEN Co.), in an assay buffer (50 mM Tris buffer comprising 10 mM magnesium chloride, 2 mM ethylenediamine tetraacetate, 0.01% bacitracin and 0.2% bovine serum albumin; pH 7.4) at 25° C. for an hour, followed by filtration through a glass filter GF/C (Wattman Co.). After washing the glass filter with 50 mM Tris buffer (pH 7.4) comprising 10 mM magnesium chloride, 2 mM ethylenediamine tetraacetate and 0.04% Tween-20, the radioactive activity on the glass filter was measured. The non-specific binding was measured in the presence of 1 μM human MCH and 50% inhibition concentration (IC50 value) of each test compound to the specific [^125I]MCH binding was determined.
# T1 sequence (Q99705 whole entry): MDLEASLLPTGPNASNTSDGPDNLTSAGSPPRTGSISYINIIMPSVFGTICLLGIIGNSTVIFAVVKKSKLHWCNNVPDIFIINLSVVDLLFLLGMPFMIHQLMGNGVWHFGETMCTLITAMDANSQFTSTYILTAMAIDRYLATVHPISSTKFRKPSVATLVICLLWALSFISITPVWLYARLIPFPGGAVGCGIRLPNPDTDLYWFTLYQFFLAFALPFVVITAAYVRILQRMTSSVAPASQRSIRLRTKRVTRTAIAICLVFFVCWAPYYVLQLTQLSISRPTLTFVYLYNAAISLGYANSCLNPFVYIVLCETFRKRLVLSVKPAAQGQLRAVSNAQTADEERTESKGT
row,Compound,IC50 [nM]
1,"CCNCc1ccc2cc(-n3ccc(OCc4ccc(F)cc4)cc3=O)ccc2n1 [Example 23, 1-{2-[(Ethylamino)methyl]quinolin-6-yl}-4-[(4-fluorobenzyl)oxy]pyridin-2(1H)-one]",6.2
2,"O=c1cc(OCc2ccccc2)ccn1-c1ccc2cn(CCN3CCCC3)nc2c1 [Example 27, 4-(Benzyloxy)-1-[2-(2-pyrrolidin-1-ylethyl)-2H-indazol-6-yl]pyridin-2(1H)-one]",80
3,"O=c1cc(OCc2ccc(Cl)cn2)ccn1-c1ccc2nc(OCCCN3CCCC3)ccc2c1 [Example 20, 4-[(5-Chloropyridin-2-yl)methoxy]-1-[2-(3-pyrrolidin-1-ylpropoxy)quinolin-6-yl]pyridin-2(1H)-one]",7.8
4,"O=c1cc(OCc2ccccc2)ccn1-c1ccc2cc(CN3CCC3)ccc2n1 [Example 28, 1-[6-(Azetidin-1-ylmethyl)quinolin-2-yl]-4-(benzyloxy)pyridin-2(1H)-one]",7.6
5,"Cc1c(CCCN2CCCC2)nc2ccc(-n3ccc(OCc4ccc(Cl)cn4)cc3=O)cn12 [Example 63, 4-[(5-Chloropyridin-2-yl)methoxy]-1-[3-methyl-2-(3-pyrrolidin-1-ylpropyl)imidazo[1,2-a]pyridin-6-yl]pyridin-2(1H)-one]",22
6,"CCCNCc1ccc2cc(-n3ccc(OCc4ccc(Cl)cn4)cc3=O)ccc2n1 [Example 40, 4-[(5-Chloropyridin-2-yl)methoxy]-1-{2-[(propylamino)methyl]quinolin-6-yl}pyridin-2(1H)-one]",5.2
7,"O=c1cc(OCc2ccc(Cl)cn2)ccn1-c1ccc2nc(OCCN3CCCC3)ccc2c1 [Example 8, 4-[(5-Chloropyridin-2-yl)methoxy]-1-[2-(2-pyrrolidin-1-ylethoxy)quinolin-6-yl]pyridin-2(1H)-one]",6.4
8,"O=c1cc(OCc2ccc(Cl)cn2)ccn1-c1ccc2nc(CN3CCC3)ccc2c1 [Example 30, 1-[2-(Azetidin-1-ylmethyl)quinolin-6-yl]-4-[(5-chloropyridin-2-yl)methoxy]pyridin-2(1H)-one]",5.9
9,"O=c1cc(/C=C/c2ccc(Cl)cn2)ccn1-c1ccc2nc(OCCN3CCCC3)cnc2c1 [Example 57, 4-[(E)-2-(5-chloropyridin-2-yl)vinyl]-1-[2-(2-pyrrolidin-1-ylethoxy)quinoxalin-6-yl]pyridin-2(1H)-one]",10.1
10,"O=c1cc(OCc2ccccc2)ccn1-c1ccc2cc(OCCN3CCCC3)ccc2c1 [Example 38, 4-(Benzyloxy)-1-[6-(2-pyrrolidin-1-ylethoxy)-2-naphthyl]pyridin-2(1H)-one]",3.1
11,"CNCc1ccc2cc(-n3ccc(OCc4ccc(Cl)cc4)cc3=O)ccc2n1 [Example 35, 4-[(4-Chlorobenzyl)oxy]-1-{2-[(methylamino)methyl]quinolin-6-yl}pyridin-2(1H)-one]",2.2

# Second part, the molecule after the results:
row,IC50 [nM],Compound
1,11,"Cn1c(CN2CCCC2)cc2ccc(-n3ccc(OCc4ccc(Cl)cn4)cc3=O)cc21 [Example 70, 4-[(5-Chloropyridin-2-yl)methoxy]-1-[1-methyl-2-(pyrrolidin-1-ylmethyl)-1H-indol-6-yl]pyridin-2(1H)-one]"
2,2.9,"CCCNCCc1ccc2cc(-n3ccc(OCc4ccccc4)cc3=O)ccc2n1 [Example 76, 4-(Benzyloxy)-1-{2-[2-(propylamino)ethyl]quinolin-6-yl}pyridin-2(1H)-one]"
3,9.8,"CC(C)N(C)c1nc2ccc(-n3ccc(OCCOc4ccc(F)cc4)cc3=O)cc2[nH]1 [Example 90, 4-[2-(4-fluorophenoxy)ethoxy]-1-{2-[isopropyl(methyl)amino]-1H-benzimidazol-6-yl}pyridin-2(1H)-one]"
4,19,"O=c1cc(OCc2ccc(F)cc2)ccn1-c1ccc2oc(CN3CCCCCC3)cc2c1 [Example 89, 1-[2-(Azepan-1-ylmethyl)-1-benzofuran-5-yl]-4-[(4-fluorobenzyl)oxy]pyridin-2(1H)-one]"
5,9.6,"O=c1cc(OCc2ccc(F)cc2)ccn1-c1ccc2cc(CN3CCC3)cnc2c1 [Example 98, 1-[3-(Azetidin-1-ylmethyl)quinolin-7-yl]-4-[(4-fluorobenzyl)oxy]pyridin-2(1H)-one]"
6,6,"O=c1cc(OCc2ccc(F)cc2)ccn1-c1ccc2cc(CN3CCC3)ncc2c1 [Example 99, 1-[3-(Azetidin-1-ylmethyl)isoquinolin-7-yl]-4-[(4-fluorobenzyl)oxy]pyridin-2(1H)-one]"
7,23,"O=c1cc(OCc2ccc(F)cc2)ccn1-c1ccc2nc(CN3CCC3)ccc2n1 [Example 95, 1-[6-(Azetidin-1-ylmethyl)-1,5-naphthyridin-2-yl]-4-[(4-fluorobenzyl)oxy]pyridin-2(1H)-one]"
8,10.5,"O=c1cc(OCc2ccc(F)cc2)ccn1OCc1ccc2nc(CN3CCCC3)ccc2c1 [Example 94, 4-[(4-Fluorobenzyl)oxy]-1-{[2-(pyrrolidin-1-ylmethyl)quinolin-6-yl]methoxy}pyridin-2(1H)-one]"
9,5.1,"Cn1c(CCCN2CCCC2)nc2ccc(-n3ccc(OCc4ccc(Cl)cc4)cc3=O)cc21 [Example 65, 4-[(4-Chlorobenzyl)oxy]-1-[1-methyl-2-(3-pyrrolidin-1-ylpropyl)-1H-benzimidazol-6-yl]pyridin-2(1H)-one]"
